Results as given in US11033546B2, “Solubilized compositions for controlled proliferation of stem cells / generating inner ear hair cells using a GSK3 inhibitor: I” (Frequency Therapeutics, Inc., priority 2016, dated 2021).
Where two headings read alike, the source gives them in different places.

What was measured:
[1] = Solubility of CHIR99021 diHCl in PBS with or without 17 wt % poloxamer 407, judged by eye and transmitted light microscopy; assay type: physicochemical; conditions: 17 wt % poloxamer 407 in 1×PBS versus 1×PBS alone; 25 mg/ml (supersaturated); pH approximately 7.5; stirred overnight at room temperature
Description: CHIR99021 diHCl was combined with either 1×PBS or 17 wt % poloxamer 407 in 1×PBS at a concentration of 25 mg/ml, which was supersaturated for both solutions. After stirring the mixtures overnight at room temperature, the pH of the PBS buffers was adjusted to a pH of approximately 7.5.

[2] = Solubility of CHIR99021 diHCl in Poloxamer P-407/water solutions under refrigeration; assay type: physicochemical; conditions: for solubility at 2 days: aqueous with cosolvent or surfactant or cyclodextrin, thermodynamic from solid, no DMSO or other additives, read-out: CHIR99021 diHCl Conc (solubility)
Description: CHIR99021 diHCl was combined with Poloxamer P-407 and water. Samples were prepared ice-cold and allowed to incubate in the refrigerator for 2 days with occasional vortexing.
The solubility results shown below in Table 1 for refrigeration conditions. The only components in the poloxamer solution in the samples were P-407 and water (no DMSO or any other additives). The 20% sample was a gel at room temperature and the 15% sample was syrup, while the 10% and 5% samples were more fluid.

For `Cc1c[nH]c(-c2cnc(NCCNc3ccc(C#N)cn3)nc2-c2ccc(Cl)cc2Cl)n1` [CHIR99021 diHCl, 6-[[2-[[4-(2,4-Dichlorophenyl)-5-(5-methyl-1H-imidazol-2-yl)-2-pyrimidinyl]amino]ethyl]amino]-3-pyridinecarbonitrile], the “solubility as judged by eye and transmitted light microscopy” value [1] was “appeared more soluble”, the “solubility trend in P-407 solutions” value ([2]; 5% to 20% P-407 in water) was “improved solubility with increasing % poloxamer concentration” and the solubility at 2 days ([2]; 10% Poloxamer P-407 in water, 10% P-407 in water) was 2.6 µg/mL. For the same compound, the solubility at 2 days ([2]; 15% Poloxamer P-407 in water, 15% P-407 in water) was 7.9 µg/mL and the solubility at 2 days ([2]; 20% Poloxamer P-407 in water, 20% P-407 in water) was 13.5 µg/mL.
